Experimental data as given in patent US4963570A, “1-(acetylaminophenyl)-2-aminopropanone derivatives and pharmaceutical compositions thereof” (Laboratoire L. Lafon, priority 1983, dated 1990).
Entries after “also recorded” stand apart in the source; their conditions may differ. Where a name gives a salt, the structure may show the parent alone.

Key:
CNS = assay: overall neuropsychopharmacological (CNS) profile; type: in vivo, mouse; rat; details: i.p., mice and rats, dose not stated
Method: The neuropsychopharmacological study of CRL 41 219 was carried out as indicated above for CRL 41 224.
The neuropsychopharmacological study of CRL 41 220 was carried out in accordance with the procedures given above for CRL 41 224.

rats [1] = assay: interaction with amphetamine; type: in vivo, rat; details: rats, i.p.; dose not stated
Method: Amphetamine (2 mg/kg) is injected intraperitoneally into groups of 6 rats 30 minutes after the administration of CRL 41 224.

mice [2] = assay: motility reduced by hypoxic aggression; type: in vivo, mouse; details: i.p., dose not stated
Method: Half an hour after they have received CRL 41 224, the mice (10 per dose, 20 control animals) are subjected to acute hypobaric anoxia [pressure reduction of 600 mm Hg (i.e. about 8×10^4 Pa) in 90 seconds; release of vacuum in 45 seconds] and are then placed in an actimeter, where their motility is recorded for 10 minutes.

mice [3] = assay: interaction with barbital; type: in vivo, mouse; details: i.p.; dose not stated
Method: Half an hour after the administration of CRL 41 224, groups of 10 mice receive an intraperitoneal injection of barbital (220 mg/kg).

mice [4] = assay: motility reduced by habituation to the enclosure; type: in vivo, mouse; details: i.p., dose not stated
Method: After they have stayed in the actimeters for 18 hours, the mice (6 per dose, 12 control animals) receive CRL 41 224. They are immediately returned to their respective enclosures and, half an hour later, their motility is recorded for 30 minutes.

mice [5] = assay: interaction with reserpine; type: in vivo, mouse; details: i.p.; dose not stated
Method: Four hours after the intraperitoneal injection of 2.5 mg/kg of reserpine, groups of 6 mice receive CRL 41 224.

rats [6] = assay: action on stereotypies in rats (α-methyltyrosine, haloperidol, reserpine); details: i.p.
mice [7] = assay: action on the spontaneous motility (actimeter); type: in vivo, mouse; details: mice, i.p.; dose not stated
Method: 0.5 hour after they have received CRL 41 224, the mice (6 per dose, 12 control animals) are placed in an actimeter, where their motility is recorded for 30 minutes.

[8] = tested on: peripheral α-adrenergic stimulation; assay: signs of peripheral adrenergic stimulation; type: in vivo, mouse; rat; details: i.p.; dose not stated
Method: (§1) Groups of three animals are observed before and then 0.25 hour, 0.50 hour, 1 hour, 2 hours, 3 hours and 24 hours after the administration of CRL 41 224.

mice [9] = assay: four plate test, traction and electric shock; type: in vivo, mouse; details: i.p., dose not stated
Method: The test is performed on groups of 10 mice 30 minutes after the administration of CRL 41 224.

rats [10] = assay: interaction with apomorphine in rats; type: in vivo, rat; details: i.p., dose not stated
Method: CRL 41 224 is administered to groups of 6 rats 0.5 hour before the subcutaneous injection of 0.5 mg/kg of apomorphine.

mice [11] = assay: action on the behavioral despair; type: in vivo, mouse; details: i.p., dose not stated
Text: Half an hour after they have received CRL 41 224, groups of 6 mice are placed in a beaker filled with water to a height of 6 cm. The total period of immobility between the 2nd and 6th minutes following immersion is noted.

mice [12] = assay: interaction with oxotremorine; type: in vivo, mouse; details: i.p.; dose not stated
Method: CRL 41 224 is administered to groups of 6 mice 0.5 hour before the intraperitoneal injection of 0.5 mg/kg of oxotremorine.

rats [13] = assay: overall behavior and reactivities in rats; type: in vivo, rat; details: i.p., dose not stated
Method: as §1

mice [14] = assay: interaction with apomorphine in mice; type: in vivo, mouse; details: i.p.; dose not stated
Method: Groups of 6 mice receive CRL 41 224 0.5 hour before the subcutaneous injection of 1 or 16 mg/kg of apomorphine.

mice [15] = assay: overall behavior and reactivities in mice; type: in vivo, mouse; details: mice, i.p.; dose not stated
Method: as §1

male mice [16] = assay: acute toxicity, intraperitoneal (lethal doses); type: in vivo, mouse; details: i.p.
Method: By intraperitoneal administration to male mice, the LD-30 (lethal dose for 30% of the animals tested) is of the order of 128 mg/kg and the LD-50 is of the order of about 200 mg/kg.

LEWIS' carcinoma = LEWIS' carcinoma in mice; type: in vivo, mouse; details: mice
Method: a. animals: consanguineous female mice (C57 BL6), b. infecting cells: 10^5 cells injected subcutaneously into the back of the animals, c. monitoring of the tumor growth by measurement of the tumor twice a week, d. evaluation of the pulmonary metastases after fixation of the lungs of the dead animals in BOUIN's fixative.
Using the same procedures, the association of CRL 41 220 with 150 mg/kg of cyclophosphamide gives the results collated in Table II below.

male mice [17] = assay: influence of catecholamines on hyperactivity in mice; type: in vivo, mouse; details: I.V.C., 10 μg
Method: A further series of assays was carried out on mice according to the teaching of S. L. HANDLEY et al. "Influences of catecholamines on dexamphetamine, induced changes in locomotor activity", Psychopharmacology 58, 283-288 (1978), in order to observe a potential influence of dopamine or moradrenaline on the hyperactivity induced by CRL 41 152.
After a habituation period of 1.5 h to the actimeters, male mice (grouped into batches of 10 animals each and a control batch of 20 animals) were administered (under slight anesthesia with ether) per intraventriculocerebral injection (i.e. I.V.C. route) with (i) either 10 μg of noradrenaline, or 10 μg of dopamine or 10 μl (0.5 μl/second) of saline solution, then (ii) 5 minutes later, with CRL 41 152 (in solution in distilled water) per I.P. route in a volume of 20 ml/kg, immediately before replacing the mice in the actimeters vherein their motility was recorded for 1 hour by measuring the number of crossed rays per period of 5 minutes).
Batches receiving CRL 41 152 per I.P. route with noradreanaline or dopamine per I.V.C. route were compared with (i) the control batch receiving the saline solution per I.V.C. route then distilled water per I.P. route, and (ii) batches receiving only noradrenaline, dopamine (per I.V.C. route) or CRL 41 152 (per I.P. route).

dogs = assay: cardiovascular action in anesthetized dogs; type: in vivo, dog; details: control dogs
Method: Four dogs (average weight: 13.8 kg), anesthetized with nembutal, receive CRL 41 220 by intraduodenal administration at successive doses of 0.1 mg/kg, 0.5 mg/kg, 1 mg/kg, 2.5 mg/kg, 5 mg/kg and 10 mg/kg. The blood pressure, the heart beat, the flow rate through the femoral artery, the flow rate through the vertebral artery and the rectal and/or skin temperature are measured and the coloration of the skin and the bile (collected by catheterization of the bile duct after ligature of the cystic duct) is observed.

SMILES | stereotypies induced by amphetamine (rats [1]) | motor recovery after hypoxic aggression (mice [2]) | motor activity after habituation to the enclosure (mice [4]) | hypothermia induced by reserpine (mice [5]) | ptosis induced by reserpine (mice [5]) | spontaneous motility / motor activity (mice [7]) | mydriasis [8] | peripheral adrenergic stimulation, overall [8] | stereotypies induced by apomorphine (rats [10]) | period of immobility or "despair" (mice [11]) | hypothermia induced by oxotremorine (mice [12]) | hypothermia induced by apomorphine (mice [14]) | excitation in mice (mice [15]) | also measured
CC(=O)Nc1ccc(C(=O)C(C)NC(C)C)cc1Cl (stereo not drawn) [CRL 41 192, 1-(4-acetylamino-3-chlorophenyl)-2-isopropylaminopropanone hydrochloride] | potentiation of the stereotypies induced by apomorphine or amphetamine | an improvement in the motor recovery in mice after acute hypoxia | a resumption in the motor activity of mice accustomed to their enclosure | antagonism of the hypothermia induced by apomorphine, oxotremorine or reserpine | antagonism of the ptosis induced by reserpine | an increase in the spontaneous motility in mice | mydriasis | effects which may reflect peripheral adrenergic stimulation | potentiation of the stereotypies induced by apomorphine | a reduction in the immobility | antagonism of the hypothermia induced by apomorphine, oxotremorine | antagonism of the hypothermia induced by apomorphine | excitation with hyperreactivity in mice | overall action on the CNS (CNS; hydrochloride): stimulant effects; also recorded: antidepressant effects; sleep induced by barbital (mice [3]): antagonism of the sleep induced by barbital; suppression of induced stereotype movements by prior injection of alpha-methyltyrosine (rats [6]): not suppressed; exophthalmos [8]: absent; salivation [8]: absent; convulsant effects of electric shock (mice [9]): anticonvulsant effects; trembling caused by oxotremorine (mice [12]): antagonism of the trembling caused by oxotremorine; stereotype movements in rats (rats [13]): stereotype movements in rats
CC(=O)Nc1ccc(C(=O)C(C)N(C)C)cc1 (stereo not drawn) [CRL 41 232] | potentiation of the stereotypies induced by apomorphine and amphetamine | improvement in the motor recovery | distinct resumption in the motor activity of mice accustomed to their enclosure | antagonism of the hypothermia induced by apomorphine, reserpine | antagonism of the ptosis induced by reserpine | increase in the motor activity | mydriasis | peripheral α-adrenergic stimulation | potentiation of the stereotypies induced by apomorphine | reduction in the period of immobility | antagonism of the hypothermia induced by apomorphine, reserpine and oxotremorine | antagonism of the hypothermia induced by apomorphine | excitation in mice | overall action on the CNS (CNS): behaves overall as a stimulant and antidepressant for the CNS; LD-0 (maximum non-lethal dose) (male mice [16]): greater than 128 mg/kg; LD-30 (male mice [16]): about 250 mg/kg; exophthalmos [8]: exophthalmos; stereotype movements in rats (rats [13]): presence of stereotype movements in mice and rats; stereotype movements in mice (mice [15]): presence of stereotype movements in mice
CC(=O)Nc1ccc(C(=O)C(C)N2CCOCC2)cc1 (stereo not drawn) [CRL 41 236] | potentiation of the stereotypies induced by apomorphine and amphetamine | improvement in the motor recovery after hypoxic aggression | increase in the spontaneous motility and in the motor activity after habituation to the enclosure | antagonism of the hypothermia induced by apomorphine, reserpine | antagonism of the ptosis induced by reserpine | increase in the spontaneous motility | mydriasis | peripheral α-adrenergic stimulation | potentiation of the stereotypies induced by apomorphine | reduction in the immobility | antagonism of the hypothermia induced by apomorphine, reserpine and oxotremorine | antagonism of the hypothermia induced by apomorphine | excitation with hyperreactivity | overall action on the CNS (CNS): behaves as an antidepressant having stimulant and arousing properties; sleep induced by barbital (mice [3]): antagonism of the sleep induced by barbital; LD-0 (maximum non-lethal dose) (male mice [16]): greater than 256 mg/kg; LD-30 (male mice [16]): about 500 mg/kg; lethal effects of electric shock (mice [9]): seems to aggravate the lethal effects of electric shock; number of punished passes in the 4 plate test (mice [9]; mice): moderate increase in the number of punished passes; stereotype movements in mice (mice [15]): without the presence of stereotype movements
O=P1(N(CCCl)CCCl)NCCCO1 (stereo not drawn) [cyclophosphamide, reference compound] | – | – | – | – | – | – | – | – | – | – | – | – | – | development of tumors (LEWIS' carcinoma; 100 mg/kg): slightly slows down the development of tumors; number of pulmonary metastases (LEWIS' carcinoma; 100 mg/kg): reduces the number of pulmonary metastases; survival of the animals treated (LEWIS' carcinoma; 100 mg/kg): without however improving the survival of the animals treated; effect on process initiated by the administration of infecting cells (LEWIS' carcinoma; 150 mg/kg): distinctly opposes the process initiated by the administration of infecting cells; survival (LEWIS' carcinoma; 150 mg/kg): 2 out of 6
NCCc1ccc(O)c(O)c1 [dopamine, reference compound] | – | – | – | – | – | – | – | – | – | – | – | – | – | locomotor effect by comparison with saline (male mice [17]): did not cause any visible locomotor effect
CC(C)NCC(O)c1ccc(O)c(O)c1 (stereo not drawn) [isoprenaline, reference compound] | – | – | – | – | – | – | – | – | – | – | – | – | – | heart beat with 10 μg/kg of isoprenaline, control animals (dogs; isoprenaline alone): 280 beats/minute
NC[C@H](O)c1ccc(O)c(O)c1 [noradrenaline, reference compound] | – | – | – | – | – | – | – | – | – | – | – | – | – | locomotor effect by comparison with saline (male mice [17]): did not cause any visible locomotor effect; systolic blood pressure with 2 μg/kg of noradrenaline, control animals (dogs; noradrenaline alone): 323 mm Hg
